Each structure is given as a SMILES string.

This data set in a line: gradient 5% acetonitrile 3 min, to 50% in 2 min, to 85% in 15 min, held 3 min, 100 µL/min. The settings on record: column: Zorbax Extend-C18 2.1 x 50 mm; eluents: water / acetonitrile, 0.1% formic acid. The essentials:
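Standards, all pure, were combined into mixtures of ~100 molecules and run at 100 μL/min on a Zorbax Extend-C18 column (2.1 × 50 mm, 1.8 μm) with water and acetonitrile, each containing 0.1% formic acid. A coupled quadrupole time-of-flight mass spectrometer operated in positive and negative ionization mode. Retention time values come from computationally picked adduct peaks, each inspected manually.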
Consider `Cc1cccn2cc(-c3ccc(NS(=O)(=O)c4ccccc4)cc3)nc12`, for which the RP-LC retention time is 617 s.

The compound `CC1CCc2c(sc3ncn4c(=O)n(CC(=O)N5CCc6ccccc6C5)nc4c23)C1` (centres undefined) came in with an RP-LC retention time of 1070 s. The value for `CNC(=O)Nc1ccc2nc3n(c(=O)c2c1)CCCC3` was 559 s; that for `O=C(NC1(c2nc(-c3cccnc3)no2)CCCCC1)c1ccc[nH]c1=O` was 667 s; that for `CCOC(=O)C1CCN(c2cc3c(cc2NC(=O)NCC(C)C)n(C)c(=O)n3C)CC1` was 685 s. The result for `CC(=O)N1c2ccc(S(=O)(=O)N3CCCC3)cc2CC1C(=O)NC1CCCCCCC1` (centres undefined) reads 907 s; that for `CC1=C(c2ccc(C)c(C)c2)S(=O)(=O)N=C1N1CCC(NC(=O)C2CCOC2)CC1` (centres undefined), 747 s. The result for `CCOc1ccc(C2=NC3(CCN(CC)CC3)NC(c3ccccc3O)C2)cc1` (centres undefined) reads 583 s; that for `O=C(NCc1ccco1)N1CCN(Cc2nc3cccnc3n2-c2ccccc2)CC1`, 620 s. `CCOc1ccc(NC(=O)N2CCCC2c2nc(-c3ccccc3OC)no2)cc1` (centres undefined) had an RP-LC retention time of 859 s. The value for `Cc1ccsc1C(=O)Nc1cccc(-c2nnc3n2CCCC3)c1` was 640 s; that for `CC(C)(C)c1ccc(/C=C/C(=O)Nc2ccc3c(c2)OCCO3)cc1` was 1190 s; that for `CC1=NS(=O)(=O)N(C)C=C1C(=O)OCc1nc(Cc2cccc(C)c2)no1` was 957 s.

As to `COC(=O)CNC(=O)N1CCN(c2nc3ccccc3n(Cc3ccccc3)c2=O)CC1`, the RP-LC retention time worked out at 779 s. The value for `O=C(NC1CCCC1)c1cc2n(n1)CCCN(Cc1ccc(Cl)cc1)C2=O` was 890 s. The value for `Cc1ccc(CSc2nccc3c2ccn3CC(=O)NCCN2CCN(C)CC2)cc1` was 589 s; that for `COCCN1C(=O)CCc2cc(NC(=O)Cc3ccccc3C)ccc21` was 766 s.

`Cn1ncc(NC(=O)c2ccccc2F)c(N2CCOCC2)c1=O` displayed an RP-LC retention time of 777 s. Compound `CC1(C)CC(=O)C2=C(C1)N(CC1CCCO1)C(=O)C2(NC(=O)c1cccnc1)C(F)(F)F` (centres undefined) came in with an RP-LC retention time of 719 s. For the compound `COc1ccc(C(=O)N2CC(n3cc(COCC4CC4)nn3)C2)cc1`, the RP-LC retention time was found to be 712 s. The value for `CSc1cccc(NC(=O)C2CC(=O)N(c3ccc4c(c3)CCN4C(C)=O)C2)c1` (centres undefined) was 730 s; that for `CCOc1ccc(-n2ccn3cc(-c4ccc(C)c(C)c4)nc3c2=O)cc1` was 938 s; that for `Cn1nc(C(=O)N2CCCC(c3nnc(-c4ccccc4F)s3)C2)ccc1=O` (centres undefined) was 690 s.

In turn, `O=C1NCCCCCCN(C(=O)c2cccs2)[C@H]2CCCC[C@@H]12` returned an RP-LC retention time of 838 s. The value for `Cc1sc(C)c(S(=O)(=O)N2CC=C(c3ccccc3)CC2)c1-c1cc(C(F)(F)F)on1` was 1300 s; that for `O=C(c1cn(-c2cc(N3CCCCC3)ncn2)cn1)N1CCc2ccccc2C1` was 973 s.

In turn, `O=C(Cn1nc2n(c1=O)CCCCC2)N1CCN(c2ccc(F)cc2)CC1` yielded an RP-LC retention time of 701 s. `NC(=O)c1n[nH]c2c1CCCCCC2` displayed an RP-LC retention time of 644 s.

The compound `Cc1sc2ccn(Cc3ccc(F)cc3)c(=O)c2c1C(=O)NCc1ccco1` came in with an RP-LC retention time of 912 s. The value for `O=C(NCCc1csc(-c2ccc(F)cc2)n1)c1ccco1` was 868 s; that for `COc1ccc(N2CCN(S(=O)(=O)c3cc(-c4nnc(C5CCC5)o4)co3)CC2)cc1` was 1000 s. The value for `COC[C@@H]1OCCN(S(=O)(=O)c2cccc(F)c2)[C@H]1c1ccccc1` was 928 s; that for `COC(=O)COC(=O)c1cn(-c2ccc(C)cc2)c(=O)c2ccccc12` was 986 s. The value for `O=C1[C@H]2CN(Cc3ccccc3F)C[C@H]2C(=O)N1Cc1ccc2c(c1)OCO2` was 792 s; that for `Cc1ccc(Sc2nccnc2N2CCCC(C(=O)Nc3cc(C)cc(C)c3)C2)cc1` (centres undefined) was 1150 s; that for `CC(C)Oc1ccc(CNC(=O)c2sc3ncccc3c2-n2cccc2)cc1` was 1110 s. The compound `COc1ccccc1-c1noc(C2CCCN2C(=O)c2ccc3c(c2)OCO3)n1` (centres undefined) returned an RP-LC retention time of 845 s.

In turn, `CN(C)C(=O)c1n[nH]c2c1CN(C(=O)c1cccc(Br)c1)CC2` had an RP-LC retention time of 654 s. Regarding `COCCn1cc(CCNC(=O)c2cncc(Br)c2)c2cccnc21`, the RP-LC retention time turned out to be 678 s. The result for `Cc1nc2cc(-c3noc(Cc4ccccc4Cl)n3)ccc2o1` reads 1030 s; that for `CCOc1ccc2nc(C(=O)NCc3ccc(OC(C)C)cc3)cn2n1`, 940 s.

For the compound `O=C1c2cc(O)cc(O)c2OC[C@@H]1c1ccc(O)c(O)c1`, the RP-LC retention time came to 834 s. The result for `CCN(C(=O)CC(C)S(=O)(=O)c1ccc2c(c1)CCN2C(=O)C1CC1)c1ccccc1` (centres undefined) reads 867 s; that for `O=C(CN1CCC(c2nc(-c3cccs3)no2)CC1)NCc1ccccc1Cl`, 690 s. The result for `CCN1CCN(c2c(S(=O)(=O)c3ccc(C)c(C)c3)cnc3cc(OC)c(OC)cc23)CC1` reads 629 s; that for `COc1cccc(OC)c1C(=O)Nc1nc(-c2ccc3c(c2)NC(=O)CO3)c(C)s1`, 785 s.

`CCCCCNC(=O)c1sc2ncccc2c1-n1cccc1` yielded an RP-LC retention time of 1080 s. The result for `O=C1CCCCC(C(=O)Nc2ccc3c(c2)OCCO3)N1` (centres undefined) reads 669 s.

The compound `CN(C)c1cccc(C(=O)N2CCC3(CC2)N=C(c2ccc(Br)cc2)NO3)c1` had an RP-LC retention time of 867 s. Consider `CCc1sc(NC(=O)c2cc3c([nH]c2=O)CC(C)(C)CC3=O)nc1-c1ccc(C)c(C)c1`, for which the RP-LC retention time worked out at 1150 s. The result for `Cc1ccc2ncn(C3CCN(S(=O)(=O)c4ccc(Cl)cc4)CC3)c(=O)c2c1` reads 970 s; that for `CCc1ccc(-c2cc3c(=O)n(Cc4noc(CN5CCCC5)n4)ccn3n2)cc1`, 694 s. `CSc1ccccc1CN1CCC(CNC(=O)C2(c3ccccc3)CCOCC2)CC1` returned an RP-LC retention time of 588 s. The result for `Cc1ccc(CC(=O)N2CCN(c3cc(-c4cccs4)[nH]n3)CC2)cc1` reads 758 s; that for `COc1ccc(OCC(=O)N2CCN(c3cc(=O)n(C(C)C)c(=O)n3C(C)C)CC2)cc1`, 846 s. Turning to `Cn1cc(CN2CCC(C(=O)N3CCN(c4ccccn4)CC3)CC2)c2cc(Cl)ccc21`, the RP-LC retention time is 584 s.

In turn, `CC1CCN(C(=O)CN2C(=O)CCCc3cc(S(=O)(=O)N4CCCCCC4)ccc32)CC1` showed an RP-LC retention time of 956 s. The result for `Cc1cc(C(=O)O)c2cc(F)ccc2n1` reads 486 s; that for `Cc1cccc(CNC(=O)C2CCN(S(=O)(=O)c3ccc(-c4cc(C)[nH]n4)o3)CC2)c1`, 816 s; that for `CCOC(=O)C1CCCN(S(=O)(=O)c2cccs2)C1` (centres undefined), 830 s. With `Cc1ccc(N2CCN(Cc3nc(-c4ccc(N5CCSCC5)nc4)no3)CC2)cc1`, the RP-LC retention time came to 959 s. The value for `COc1ccc(CN2CCc3nc(N4CCN(c5ccccn5)CC4)ncc3C2)c(OC)c1OC` was 555 s; that for `CCN1C(=O)C2(CCN(S(=O)(=O)c3ccc(OC)c(Cl)c3)CC2)c2ccccc21` was 1080 s. The result for `CCOc1ccc(-c2noc(Cn3cnc4c(cnn4-c4ccc(OC)cc4)c3=O)n2)cc1OC` reads 973 s; that for `CSc1nc2ccc(NC(=O)c3ccc(N4C(=O)CCC4=O)cc3)cc2s1`, 730 s. The result for `Cc1cc(C)c2c(N(C)C)nc(C(=O)NCCN(C)C3CCCCC3)nc2n1` reads 562 s; that for `CSc1cccc(NC(=O)C(=O)NCC(c2ccc3c(c2)CCCN3C)N2CCCC2)c1` (centres undefined), 640 s. Consider `N#Cc1cccc(C(=O)N2CCN(c3cc(-c4ccccc4)[nH]n3)CC2)c1`, for which the RP-LC retention time stood at 749 s. The value for `CCCOc1ccc(-c2noc(Cc3nc(-c4ccccc4)cs3)n2)cc1` was 1340 s; that for `CN1c2ccc(F)cc2C(=O)NC12CCN(C(=O)Cc1ccc(Cl)cc1)CC2` was 795 s; that for `CCOc1ccc(-c2nnc(SCC(=O)Nc3nnc(C)s3)o2)cc1` was 776 s. The result for `CCc1nn2c(nnc3c(=O)n(CCc4c[nH]c5ccccc45)ccc32)c1-c1ccc(F)cc1` reads 1040 s; that for `CCC(C)NC(=O)C1CCN(S(=O)(=O)c2c(C)nn(CC(=O)Nc3ccc(C)cc3)c2C)CC1` (centres undefined), 806 s. The value for `Cc1noc(C)c1CNC(=O)CCCc1ccccc1` was 760 s; that for `Cc1ccccc1-c1nsc(SCC(=O)NCc2ccco2)n1` was 892 s.

As to `COCCO[C@H]1C(=O)N(C2CCN(S(=O)(=O)C(C)C)CC2)[C@H]1c1ccncc1`, the RP-LC retention time was 572 s. The result for `CCOc1ccc(-n2ccn3cc(-c4cc(C)ccc4C)nc3c2=O)cc1` reads 951 s. The result for `CC(NC(=O)CCNc1c(-c2ccc(F)cc2)nc2cnccn12)c1ccccn1` (centres undefined) reads 578 s. The value for `Cc1ccc(S(=O)(=O)N2CCC(c3noc(-c4ccccc4C)n3)CC2)cc1C` was 1260 s.

These data come from the METLIN SMRT retention time set (Domingo-Almenara et al. 2019).
